Like-named read-outs stand apart in the source and are kept apart here.
Tests used:
[1] = target: T1, D3R (Homo sapiens, UniProt P35462); details: cited from earlier work; for Ki: read-out: D3R affinity
[2] = target: T1, D3R; assay: D3R radioligand binding assay ([125I]IABN, HEK cells); parameters: expressed in transfected cells; details: for D2R/D3R Ratio: (Ki for D2R)/(Ki for D3R), D3R versus D2R selectivity (fold); for Ki: human D3 expressed in HEK cells, [125I]IABN radioligand, at least three experiments, HCl salts, read-out: Ki ± SEM D3R
Experimental: (§1) The receptor binding assay for the D2R and the D3R and the β-arrestin recruitment assay for the D3R were performed by following the previously reported methods.

[3] = target: T2, human D2 (Homo sapiens, UniProt P14416); assay: D2R radioligand binding assay ([125I]IABN, HEK cells); details: human D2 expressed in HEK cells, [125I]IABN radioligand, at least three experiments, HCl salts; read-out: Ki ± SEM D2R
T2 construct: expressed in transfected cells
Experimental: as §1

[4] = target: T1, D3R; parameters: method as in PMID 33918451; details: MDS, Fallypride; cited from earlier work
[5] = target: D2R; details: cited from earlier work
[6] = target: T1, D3R; assay: β-arrestin competition (recruitment) assay against dopamine; type: cell-based; details: competition with dopamine (30 nM) for the D3R, at least three experiments; read-out: β-Arrestin Assay IC50 ± SEM
Experimental: Compounds having a longer aliphatic linker ((R,S)-trans-2b–d) have a similar IC50 value in this assay. As expected, the IC50 value of β-arrestin assay parallels the Ki value in the D3R binding assay. It is of interest to note that the potency of (R,S)-trans-2a in the β-arrestin assay is higher than its potency in the in vitro binding assay for the D3R.
as §1

[7] = Figure 1, PET radiotracers, read-out: D2R affinity

T2 sequence (P14416 whole entry): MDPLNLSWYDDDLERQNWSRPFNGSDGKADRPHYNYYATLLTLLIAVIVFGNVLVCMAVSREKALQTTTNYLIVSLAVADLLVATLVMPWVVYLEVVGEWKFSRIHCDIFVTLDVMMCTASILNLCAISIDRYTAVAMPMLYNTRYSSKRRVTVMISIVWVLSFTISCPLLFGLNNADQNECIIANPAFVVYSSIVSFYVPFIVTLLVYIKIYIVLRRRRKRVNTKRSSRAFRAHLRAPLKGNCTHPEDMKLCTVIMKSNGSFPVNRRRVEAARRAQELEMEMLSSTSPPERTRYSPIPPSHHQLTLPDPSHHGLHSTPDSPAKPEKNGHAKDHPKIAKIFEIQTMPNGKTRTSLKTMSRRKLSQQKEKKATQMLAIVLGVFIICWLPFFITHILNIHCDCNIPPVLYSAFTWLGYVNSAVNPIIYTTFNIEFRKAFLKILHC
T1 sequence (P35462 whole entry): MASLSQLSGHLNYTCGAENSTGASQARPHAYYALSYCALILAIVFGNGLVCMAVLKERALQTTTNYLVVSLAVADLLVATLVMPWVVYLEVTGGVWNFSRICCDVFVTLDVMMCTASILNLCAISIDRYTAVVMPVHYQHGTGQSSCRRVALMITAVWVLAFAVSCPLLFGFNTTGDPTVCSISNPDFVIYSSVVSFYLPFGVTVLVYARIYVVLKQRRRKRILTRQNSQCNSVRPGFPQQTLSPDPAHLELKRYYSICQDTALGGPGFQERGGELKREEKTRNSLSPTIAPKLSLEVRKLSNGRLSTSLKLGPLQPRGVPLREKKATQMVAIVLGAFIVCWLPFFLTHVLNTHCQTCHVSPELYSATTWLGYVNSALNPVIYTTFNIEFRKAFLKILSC

CCN(CCCCNC(=O)c1cc2ccccc2[nH]1)CCNC(=O)c1cc(Br)cc(OC)c1OC [HY-2-93]
D3R/D2R, D3R versus D2R selectivity (fold) ([1]; HY-2-93): 180
Ki ([1]; HY-2-93): 0.8 nM

C=CCN1C[C@H](OC(=O)NCCCCCCCCc2cccs2)C[C@H]1CNC(=O)c1cc(CCCF)cc(OC)c1OC [(R,S)-trans-2i, (3R,5S)-1-allyl-5-((5-(3-fluoropropyl)-2,3-dimethoxybenzamido)methyl)pyrrolidin-3-yl (8-(thiophen-2-yl)octyl)carbamate]
D2R/D3R Ratio [2]: 5.6
Ki [2]: 0.7 ± 0.1 nM
Ki [3]: 3.7 ± 0.2 nM

CCCN(CCC1(O)CC(NC(=O)c2ccc3ccccc3c2)C1)C1CC1c1ccc(Cl)cc1 (stereo not drawn) [CJ-1882]
Ki ([1]; CJ-1882): 2.8 nM

C=CCN1CCC[C@H]1CNC(=O)c1cc(CCCF)cc(OC)c1OC [Fallypride]
Distance to D3R ASP110^3.32 [4]: 3.17 ± 0.21 Å
Ki [5, 7]: 0.02 nM

C=CCN1C[C@H](OC(=O)NCCOCCOCCOC)C[C@H]1CNC(=O)c1cc(CCCF)cc(OC)c1OC [(R,S)-trans-2e, (3R,5S)-1-allyl-5-((5-(3-fluoropropyl)-2,3-dimethoxybenzamido)methyl)pyrrolidin-3-yl (2-(2-(2-methoxyethoxy)ethoxy)ethyl)carbamate]
D2R/D3R Ratio [2]: 2.2
Ki [2]: 4.1 ± 0.6 nM
Ki [3]: 9.2 ± 0.8 nM

CCN1CCC[C@H]1CNC(=O)c1c(O)c(Cl)cc(Cl)c1OC [[^11C]Raclopride, Raclopride]
D2R/D3R ([1]; Figure 1, PET radiotracers): 0.514
Ki ([1]; Figure 1, PET radiotracers): 3.5 nM
Ki [5, 7]: 1.8 nM

C=CCN1C[C@@H](OC(=O)NCCCCCCCCCC)C[C@H]1CNC(=O)c1cc(CCCF)cc(OC)c1OC [(S,S)-cis-2d, (3S,5S)-1-allyl-5-((5-(3-fluoropropyl)-2,3-dimethoxybenzamido)methyl)pyrrolidin-3-yl decylcarbamate]
Ki [2]: 282 ± 69 nM
IC50 [6]: 608 ± 231 nM
Ki [3]: 164 ± 29 nM

C=CCN1C[C@H](OC(=O)NCCCCCCc2cccs2)C[C@H]1CNC(=O)c1cc(CCCF)cc(OC)c1OC [(R,S)-trans-2h, (3R,5S)-1-allyl-5-((5-(3-fluoropropyl)-2,3-dimethoxybenzamido)methyl)pyrrolidin-3-yl (6-(thiophen-2-yl)hexyl)carbamate]
D2R/D3R Ratio [2]: 6.2
Ki [2]: 0.6 ± 0.1 nM
Ki [3]: 3.9 ± 0.4 nM

C=CCN1C[C@H](OC(=O)NCCCC)C[C@H]1CNC(=O)c1cc(CCCF)cc(OC)c1OC [(R,S)-trans-2a, (3R,5S)-1-allyl-5-((5-(3-fluoropropyl)-2,3-dimethoxybenzamido)methyl)pyrrolidin-3-yl butylcarbamate]
D2R/D3R Ratio [2]: 1.8
Ki [2]: 2.6 ± 0.3 nM
IC50 [6]: 0.8 ± 0.5 nM
Ki [3]: 4.8 ± 0.5 nM

C=CCN1C[C@H](OC(=O)NCCOCCOCCOCCOC)C[C@H]1CNC(=O)c1cc(CCCF)cc(OC)c1OC [(R,S)-trans-2f, (3R,5S)-1-allyl-5-((5-(3-fluoropropyl)-2,3-dimethoxybenzamido)methyl)pyrrolidin-3-yl (2,5,8,11-tetraoxatridecan-13-yl)carbamate]
D2R/D3R Ratio [2]: 2.2
Ki [2]: 5.3 ± 0.8 nM
Ki [3]: 11.5 ± 2.6 nM

C=CCN1C[C@@H](OC(=O)NCCCCCCCCCC)C[C@@H]1CNC(=O)c1cc(CCCF)cc(OC)c1OC [(S,R)-trans-2d, (3S,5R)-1-allyl-5-((5-(3-fluoropropyl)-2,3-dimethoxybenzamido)methyl)pyrrolidin-3-yl decylcarbamate]
D2R/D3R Ratio [2]: 0.7
Ki [2]: 2630 ± 815 nM
IC50 [6]: > 1000 nM
Ki [3]: 1940 ± 380 nM

C=CCN1C[C@@H](OC(=O)NCCCCCCCCc2cccs2)C[C@@H]1CNC(=O)c1cc(CCCF)cc(OC)c1OC [(S,R)-trans-2i, (3S,5R)-1-allyl-5-((5-(3-fluoropropyl)-2,3-dimethoxybenzamido)methyl)pyrrolidin-3-yl (8-(thiophen-2-yl)octyl)carbamate]
D2R/D3R Ratio [2]: 0.6
Ki [2]: 2420 ± 975 nM
Ki [3]: 1470 ± 166 nM

C=CCN1C[C@H](OC(=O)NCCCCCCCCCC)C[C@@H]1CNC(=O)c1cc(CCCF)cc(OC)c1OC [(R,R)-cis-2d, (3R,5R)-1-allyl-5-((5-(3-fluoropropyl)-2,3-dimethoxybenzamido)methyl)pyrrolidin-3-yl decylcarbamate]
Ki [2]: 1660 ± 433 nM
IC50 [6]: > 1000 nM
Ki [3]: 9600 ± 2360 nM

C=CCN1C[C@H](OC(=O)NCCCCCCCC)C[C@H]1CNC(=O)c1cc(CCCF)cc(OC)c1OC [(R,S)-trans-2c, (3R,5S)-1-allyl-5-((5-(3-fluoropropyl)-2,3-dimethoxybenzamido)methyl)pyrrolidin-3-yl octylcarbamate]
D2R/D3R Ratio [2]: 4.7
Ki [2]: 3.4 ± 0.8 nM
IC50 [6]: 27.8 ± 21.1 nM
Ki [3]: 15.9 ± 3.3 nM

C#CCOCCOCCNC(=O)O[C@@H]1C[C@@H](CNC(=O)c2cc(CCCF)cc(OC)c2OC)N(CC=C)C1 [(R,S)-trans-2g, (3R,5S)-1-allyl-5-((5-(3-fluoropropyl)-2,3-dimethoxybenzamido)methyl)pyrrolidin-3-yl (2-(2-(prop-2-yn-1-yloxy)ethoxy)ethyl)carbamate]
D2R/D3R Ratio [2]: 2.4
Ki [2]: 3.7 ± 0.8 nM
Ki [3]: 9 ± 0.3 nM

C=CCN1C[C@H](OC(=O)NCCCCCCCCCC)C[C@H]1CNC(=O)c1cc(CCCF)cc(OC)c1OC [(R,S)-trans-2d, (3R,5S)-1-allyl-5-((5-(3-fluoropropyl)-2,3-dimethoxybenzamido)methyl)pyrrolidin-3-yl decylcarbamate]
Ki [2]: 2.8 ± 0.5 nM
IC50 [6]: 21.2 ± 9.8 nM
Ki [3]: 35.6 ± 8.1 nM

C=CCN1C[C@H](OC(=O)NCCCCCCCCc2ccsc2)C[C@H]1CNC(=O)c1cc(CCCF)cc(OC)c1OC [(R,S)-trans-2j, (3R,5S)-1-allyl-5-((5-(3-fluoropropyl)-2,3-dimethoxybenzamido)methyl)pyrrolidin-3-yl (8-(thiophen-3-yl)octyl)carbamate]
D2R/D3R Ratio [2]: 5.0
Ki [2]: 2.1 ± 0.1 nM
Ki [3]: 10.5 ± 2 nM

C=CCN1C[C@@H](OC(=O)NCCCCCCCCc2cccs2)C[C@H]1CNC(=O)c1cc(CCCF)cc(OC)c1OC [(S,S)-cis-2i, (3S,5S)-1-allyl-5-((5-(3-fluoropropyl)-2,3-dimethoxybenzamido)methyl)pyrrolidin-3-yl (8-(thiophen-2-yl)octyl)carbamate]
Ki [2]: 148 ± 37 nM
Ki [3]: 68 ± 12 nM

CCN1CCC[C@H]1CNC(=O)c1cc(Br)cc(OC)c1O[11CH3] [[^11C]FLB 457]
D2R/D3R ([1]; Figure 1, PET radiotracers): 1.294
Ki ([1]; Figure 1, PET radiotracers): 0.017 nM
Ki [5, 7]: 0.022 nM

C=CCN1C[C@H](OC(=O)NCCCCCCCCc2cccs2)C[C@@H]1CNC(=O)c1cc(CCCF)cc(OC)c1OC [(R,R)-cis-2i, (3R,5R)-1-allyl-5-((5-(3-fluoropropyl)-2,3-dimethoxybenzamido)methyl)pyrrolidin-3-yl (8-(thiophen-2-yl)octyl)carbamate]
D2R/D3R Ratio [2]: 3.0
Ki [2]: 722 ± 234 nM
Ki [3]: 2190 ± 235 nM

C=CCN1C[C@H](OC(=O)NCCCCCC)C[C@H]1CNC(=O)c1cc(CCCF)cc(OC)c1OC [(R,S)-trans-2b, (3R,5S)-1-allyl-5-((5-(3-fluoropropyl)-2,3-dimethoxybenzamido)methyl)pyrrolidin-3-yl hexylcarbamate]
D2R/D3R Ratio [2]: 3.4
Ki [2]: 1.6 ± 0.4 nM
IC50 [6]: 7.8 ± 5.9 nM
Ki [3]: 5.5 ± 1 nM

CC[11CH2]N1CCO[C@@H]2c3cc(O)ccc3CC[C@H]21 [[^11C]-(+)-PHNO]
Ki ([5]; Figure 1, printed with superscript H, read-out: ^HD2R affinity): 0.45 nM
